Assay results published in ChEMBL document CHEMBL1136579, “Determination of active components in rhubarb and study of their hydrophobicity by micellar electrokinetic chromatography” (Bioorg Med Chem Lett, 2003).

assay: Partition coefficient of compound in octanol and water by Fragmental method of Leo/Hansch; type: physicochemical

Compound | logP
Cc1cc(O)c2c(c1)C(=O)c1cc(O)cc(O)c1C2=O [EMODIN] | 2.87
O=C1c2cccc(O)c2C(=O)c2c(O)cc(CO)cc21 [ALOE-EMODIN] | 2.62

The remaining lines, values ahead:

logP | Compound
2.37 | O=C(O)c1cc(O)c2c(c1)C(=O)c1cccc(O)c1C2=O [RHEIN]
3.39 | Cc1cc(O)c2c(c1)C(=O)c1cccc(O)c1C2=O [CHRYSOPHANOL]
3.65 | COc1cc(O)c2c(c1)C(=O)c1cc(C)cc(O)c1C2=O [PHYSCION]
